Molecules are shown by their SMILES.

The nature of this assay: Inhibition of P300 CH1 domain-mediated HIF1 transcriptional activity in human LN229-V6R cells assessed as reduction in luciferase activity incubated for 1 hr under normoxia followed by 24 hrs under hypoxia by reporter gene assay. (In general: Reporter assays use an easily measured gene product as a stand-in for the process of interest.)
`CC(C)CN(Cc1ccc2c(c1)C=CC(C)(C)O2)S(=O)(=O)c1nccs1`: the IC50 (in general, the point on the concentration scale where inhibition reaches its midpoint) was 5 µM.

For `CC(C)CN(Cc1ccc2c(c1)C=CC(C)(C)O2)S(=O)(=O)c1nccn1C`, the IC50 is 5 µM.

`COc1cc(CN(C(C)C)S(=O)(=O)c2ccccn2)cc2c1OC(C)(C)C=C2`: the IC50 turned out to be 5 µM.

Take `CC(C)CN(Cc1ccc2c(c1)C=CC(C)(C)O2)S(=O)(=O)c1ccccn1`: the IC50 was determined as 5 µM.

These data come from BindingDB's records for doi:10.1021/jm300752n (Emory University, 2012).
